Experimental data as given in patent US20230096766A1, “AMINO ACID HAVING FUNCTIONAL GROUP CAPABLE OF INTERMOLECULAR HYDROGEN BONDING, PEPTIDE COMPOUND CONTAINING SAME AND METHOD FOR PRODUCTION THEREOF” (Chugai Seiyaku Kabushiki Kaisha, priority 2018, published 2023).
*1 amine or outer side, *2 acyl side, *3 side chain or, on linkers, in order; H or OH if unused. Where a SMILES comes first, the peptide text is derived from it. Bridges are numbered along the chain shown (N, C = ends). [ ]: non-standard residue; d: D form. The star is where a group is joined. ξ: configuration not given here. hPhe(3-OMe,4-CONHMe) = CNC(=O)c1ccc(CC[C@H](N)C(=O)O)cc1OC; X5 = O=C([C@H](CCC[C@@H]1CC(F)(F)CN1)N[*:1])[*:2]; CH2(1,2,4-oxadiazolon-3-yl) = O=c1[nH]c(C*)no1; Pro(4,4-F2)ψ(CH2) = FC1(F)CN[C@H](C*)C1; Ethyl(2-morpholino) = C1CN(CC*)CCO1; NMeF = CN[C@@H](Cc1ccccc1)C(=O)O; NMeGABA = CN(CCCC(=O)[*:2])[*:1]; NMeI = CC[C@H](C)[C@H](NC)C(=O)O; CH2CH(OH)CF3 = OC(C*)C(F)(F)F; NMeL = CN[C@@H](CC(C)C)C(=O)O; dNMeL = CN[C@H](CC(C)C)C(=O)O; Butyl(3R-OH) = C[C@@H](O)CC*; Butyl(3S-OH) = C[C@H](O)CC*; NMeV = CN[C@H](C(=O)O)C(C)C; NMeAbu = CC[C@H](NC)C(=O)O; NMeA = CN[C@@H](C)C(=O)O; Piperidide = C1CCN(*)CC1; NBuGly = CCCCNCC(=O)O; ξV = CC(C)C(N)C(=O)O; ξS = NC(CO)C(=O)O; Sar = CNCC(=O)O; tBu = CC(C)(C)*

Experiment: Membrane permeability test of cyclic peptides (Caco-2, modified/improved method of WO 2018/124162)
Settings: human
[1] = Caco-2, Caco-2 (membrane permeability), Table 10, cyclic peptides containing Ser(S-4-F2-Pyrro-Me) (G) or Nva(2-R-4-F2-Pyrro) (H)
[2] = Caco-2, Caco-2 (membrane permeability), Table 6, cyclic peptides containing Ser(1-CF3-EtOH) (C) or Hnl(7-F3-6-OH) (D)
[3] = Caco-2, Caco-2 (cm/sec), membrane permeability of cyclic peptides, Caco-2

## CCCCN1CC(=O)N(C)[C@@H](Cc2ccccc2)C(=O)N(C)[C@@H](CC(C)C)C(=O)N[C@@H](CCC[C@@H]2CC(F)(F)CN2)C(=O)N(C)[C@@H](CC(C)C)C(=O)N[C@H](C(=O)N2CCCCC2)CC(=O)N(C)CC(=O)N(C)[C@@H](CC(C)C)C(=O)N[C@@H](C(C)C)C(=O)N(C)[C@@H](CC(C)C)C(=O)N[C@@H]([C@@H](C)O)C1=O [Compound H07] ([Sar][NMeL]V[NMeL]T[NBuGly][NMeF][NMeL][X5][NMeL]D-Piperidide; lactam N-11)
[1]
  Papp: 0.16 ×10⁻⁶ cm/s

## CC[C@H](C)[C@@H]1NC(=O)[C@H](CC(C)C)N(C)C(=O)CCCN(C)C(=O)C[C@@H](C(=O)N2CCCCC2)NC(=O)[C@H](CC(C)C)N(C)C(=O)[C@H](CC(C)C)N(C)C(=O)[C@H](COCCN2CCOCC2)NC(=O)[C@H](CC(C)C)N(C)C(=O)[C@H](COC(C)(C)C)NC(=O)[C@H](CC)N(C)C(=O)[C@H](Cc2ccccc2)N(C)C1=O [pd485] ([NMeGABA][NMeL]I[NMeF][NMeAbu]S(tBu)[NMeL]S(Ethyl(2-morpholino))[NMeL][NMeL]D-Piperidide; lactam N-11)
Caco-2, Caco-2, Papp, membrane permeability, cyclic peptides comprising MeAbu(pip-4-F2), MeAbu(Mor), Ser(Et-2-Mor), MeAbu(pip-3-F2) or Abu(5-Oxo-Odz) (Table 29)
  Papp: 1.2 ×10⁻⁶ cm/s

## CCCCN1CC(=O)N(C)[C@@H](Cc2ccccc2)C(=O)N(C)[C@@H](CC(C)C)C(=O)N[C@@H](CC(C)C)C(=O)N(C)[C@@H](CC(C)C)C(=O)N[C@H](C(=O)N2CCCCC2)CC(=O)N(C)CC(=O)N(C)[C@@H](CC)C(=O)N[C@@H](C(C)C)C(=O)N(C)[C@@H](CC)C(=O)N[C@@H](COC[C@@H]2CC(F)(F)CN2)C1=O [Compound G11] ([Sar][NMeAbu]V[NMeAbu]S(Pro(4,4-F2)ψ(CH2))[NBuGly][NMeF][NMeL]L[NMeL]D-Piperidide; lactam N-11)
[1]
  Papp: 1.5 ×10⁻⁶ cm/s

## CC[C@H](C)[C@H]1C(=O)N[C@@H](CCc2ccc(C(=O)NC)c(OC)c2)C(=O)N[C@H](C(=O)N2CCCCC2)CC(=O)N(C)[C@H](CC(C)C)C(=O)N[C@@H](COC(C)(C)C)C(=O)N(C)[C@@H](CC(C)C)C(=O)N[C@@H]([C@@H](C)O)C(=O)N(C)[C@@H](Cc2ccccc2)C(=O)N(C)[C@@H](CC(C)C)C(=O)NCC(=O)N1C [AP264] ([dNMeL]S(tBu)[NMeL]T[NMeF][NMeL]G[NMeI][hPhe(3-OMe,4-CONHMe)]D-Piperidide; lactam N-10)
Caco-2, Caco-2 (cm/sec), membrane permeability, Caco-2
  Papp: 0.17 ×10⁻⁶ cm/s

## CC(C)C[C@H]1C(=O)N[C@@H](COC(C)(C)C)C(=O)N(C)[C@@H](Cc2ccccc2)C(=O)N(C)[C@@H](CC(C)C)C(=O)N[C@H](C(=O)N2CCCCC2)CC(=O)N[C@H](C(C)C)C(=O)N(C)[C@@H](Cc2ccccc2)C(=O)N[C@@H](COCC(O)C(F)(F)F)C(=O)N(C)[C@@H](CC(C)C)C(=O)NC(C(C)C)C(=O)N(C)CC(=O)N1C (stereo partly drawn) [Compound C11] ([dV][NMeF]S(CH2CH(OH)CF3)[NMeL][ξV][Sar][NMeL]S(tBu)[NMeF][NMeL]D-Piperidide; lactam N-11)
[2]
  Papp: 0.23 ×10⁻⁶ cm/s

## CCCCN1CC(=O)N(C)[C@@H](Cc2ccccc2)C(=O)N(C)[C@@H](CC(C)C)C(=O)N[C@@H](C(C)C)C(=O)N(C)[C@@H](CC(C)C)C(=O)N[C@H](C(=O)N2CCCCC2)CC(=O)N(C)CC(=O)N(C)[C@@H](C(C)C)C(=O)N[C@@H](CCC[C@@H]2CC(F)(F)CN2)C(=O)N(C)[C@@H](CC(C)C)C(=O)N[C@@H]([C@@H](C)O)C1=O [Compound H06] ([Sar][NMeV][X5][NMeL]T[NBuGly][NMeF][NMeL]V[NMeL]D-Piperidide; lactam N-11)
[1]
  Papp: 0.27 ×10⁻⁶ cm/s

## CC[C@H](C)[C@@H]1NC(=O)[C@H](CC(C)C)N(C)C(=O)[C@H](COC(C)(C)C)NC(=O)[C@H](Cc2ccccc2)N(C)C(=O)[C@H](Cc2ccccc2)N(C)C(=O)[C@H](COCC(O)C(F)(F)F)NC(=O)[C@H](CC)N(C)C(=O)CCCN(C)C(=O)C[C@@H](C(=O)N2CCCCC2)NC(=O)[C@H](CC(C)C)N(C)C(=O)[C@H](CC(C)C)N(C)C1=O (stereo partly drawn) [Compound C13] ([NMeGABA][NMeAbu]S(CH2CH(OH)CF3)[NMeF][NMeF]S(tBu)[NMeL]I[NMeL][NMeL]D-Piperidide; lactam N-11)
[2]
  Papp: 0.26 ×10⁻⁶ cm/s

## CC(C)C[C@@H]1NC(=O)[C@H](C(C)C)N(C)C(=O)C[C@@H](C(=O)N2CCCCC2)NC(=O)[C@H](CC(C)C)N(C)C(=O)CN(C)C(=O)[C@H]([C@@H](C)O)NC(=O)[C@H](C(C)C)N(C)C(=O)[C@H](Cc2ccccc2)N(C)C(=O)C(COCC[C@H](C)O)NC(=O)[C@H](Cc2ccccc2)N(C)C(=O)[C@H](CC(C)C)N(C)C1=O (stereo partly drawn) [AP104] ([NMeV]L[NMeL][NMeF][ξS](Butyl(3S-OH))[NMeF][NMeV]T[Sar][NMeL]D-Piperidide; lactam N-11)
[3]
  Papp: 2.9 ×10⁻⁶ cm/s

## CC(C)C[C@H]1C(=O)N[C@@H](C(C)C)C(=O)N(C)[C@@H](Cc2ccccc2)C(=O)N(C)[C@@H](CC(C)C)C(=O)N[C@@H](CCC[C@@H]2CC(F)(F)CN2)C(=O)N(C)[C@@H](CC(C)C)C(=O)N[C@@H]([C@@H](C)O)C(=O)N(C)[C@@H](CC(C)C)C(=O)N(C)[C@@H](CC(C)C)C(=O)N[C@H](C(=O)N2CCCCC2)CC(=O)N(C)CCCC(=O)N1C [Compound H03] ([NMeGABA][NMeL]V[NMeF][NMeL][X5][NMeL]T[NMeL][NMeL]D-Piperidide; lactam N-11)
[1]
  Papp: < 0.18 ×10⁻⁶ cm/s

## CCCCN1CC(=O)N(C)[C@@H](CC(C)C)C(=O)NC(COCc2noc(=O)[nH]2)C(=O)N(C)[C@@H](CC(C)C)C(=O)N(C)[C@@H](CC(C)C)C(=O)N[C@H](C(=O)N2CCCCC2)CC(=O)N[C@H](C(C)C)C(=O)N(C)[C@@H](Cc2ccccc2)C(=O)N[C@@H](CC(C)C)C(=O)N(C)[C@@H](CC(C)C)C(=O)N[C@@H]([C@@H](C)O)C1=O (stereo partly drawn) [AP43] ([dV][NMeF]L[NMeL]T[NBuGly][NMeL][ξS](CH2(1,2,4-oxadiazolon-3-yl))[NMeL][NMeL]D-Piperidide; lactam N-11)
[3]
  Papp: 0.82 ×10⁻⁶ cm/s

## CCCCN1CC(=O)N(C)[C@@H](Cc2ccccc2)C(=O)N(C)[C@@H](CC(C)C)C(=O)N[C@@H](CC(C)C)C(=O)N(C)[C@@H](CC(C)C)C(=O)N[C@H](C(=O)N2CCCCC2)CC(=O)N(C)CC(=O)N(C)[C@@H](C)C(=O)N[C@@H](C(C)C)C(=O)N(C)[C@@H](CC)C(=O)N[C@@H](CCC[C@@H]2CC(F)(F)CN2)C1=O [Compound H11] ([Sar][NMeA]V[NMeAbu][X5][NBuGly][NMeF][NMeL]L[NMeL]D-Piperidide; lactam N-11)
[1]
  Papp: 2 ×10⁻⁶ cm/s

## CCCCN1CC(=O)N(C)[C@@H](CC(C)C)C(=O)N[C@H](C(=O)N2CCCCC2)CC(=O)N(C)[C@@H](CC)C(=O)N[C@@H](CC(C)C)C(=O)N(C)[C@@H](CC(C)C)C(=O)N(C)[C@@H](Cc2ccccc2)C(=O)N[C@@H](CCC[C@@H]2CC(F)(F)CN2)C(=O)N(C)[C@@H](C)C(=O)N(C)[C@@H](CC(C)C)C(=O)N[C@@H]([C@@H](C)O)C1=O [Compound H04] ([NMeAbu]L[NMeL][NMeF][X5][NMeA][NMeL]T[NBuGly][NMeL]D-Piperidide; lactam N-11)
[1]
  Papp: 0.93 ×10⁻⁶ cm/s

## CCCCN1CC(=O)N(C)[C@@H](CC(C)C)C(=O)N[C@H](C(=O)N2CCCCC2)CC(=O)N(C)[C@@H](C(C)C)C(=O)N[C@@H](CC(C)C)C(=O)N(C)[C@@H](CC(C)C)C(=O)N(C)[C@@H](Cc2ccccc2)C(=O)N[C@@H](COCC[C@@H](C)O)C(=O)N(C)[C@@H](Cc2ccccc2)C(=O)N(C)[C@@H](C(C)C)C(=O)N[C@@H]([C@@H](C)O)C1=O [AP116] ([NMeV]L[NMeL][NMeF]S(Butyl(3R-OH))[NMeF][NMeV]T[NBuGly][NMeL]D-Piperidide; lactam N-11)
[3]
  Papp: 0.89 ×10⁻⁶ cm/s
